The text below walks through data of BindingDB's records for doi:10.1124/jpet.105.097303 (Temple University, 2006).

For orientation: Ki means a dissociation constant, usually derived from enzyme kinetics or from competition with a known ligand. Lower therefore signals higher affinity.

The target of assay [1] is cAMP-dependent protein kinase catalytic subunit beta (Rattus norvegicus, UniProt P68182).
Assay [2] deals with T1, cGMP-dependent protein kinase 1 (Homo sapiens, UniProt Q13976).
T1 sequence (Q13976 whole entry): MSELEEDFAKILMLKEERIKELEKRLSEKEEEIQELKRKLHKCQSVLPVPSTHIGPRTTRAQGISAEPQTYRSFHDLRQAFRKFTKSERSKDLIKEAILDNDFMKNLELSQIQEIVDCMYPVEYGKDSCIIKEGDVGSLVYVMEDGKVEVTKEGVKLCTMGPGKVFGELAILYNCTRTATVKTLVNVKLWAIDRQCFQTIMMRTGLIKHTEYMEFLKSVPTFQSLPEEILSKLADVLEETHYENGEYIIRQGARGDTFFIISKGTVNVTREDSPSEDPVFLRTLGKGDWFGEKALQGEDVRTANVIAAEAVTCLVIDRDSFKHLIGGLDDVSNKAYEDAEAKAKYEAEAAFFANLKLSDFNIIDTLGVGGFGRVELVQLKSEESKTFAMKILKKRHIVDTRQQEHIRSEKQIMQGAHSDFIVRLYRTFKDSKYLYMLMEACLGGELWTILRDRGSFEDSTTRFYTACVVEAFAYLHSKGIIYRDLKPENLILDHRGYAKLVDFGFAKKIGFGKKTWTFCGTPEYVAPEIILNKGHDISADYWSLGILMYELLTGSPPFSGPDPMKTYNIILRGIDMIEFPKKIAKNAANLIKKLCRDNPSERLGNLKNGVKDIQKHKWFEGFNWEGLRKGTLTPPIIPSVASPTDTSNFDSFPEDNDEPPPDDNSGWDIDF

Assay [3] concerns the target Rho-associated protein kinase 2 (Rattus norvegicus, UniProt Q62868).
Assay [4] has as its target Protein kinase C alpha type (Rattus norvegicus, UniProt P05696).
In assay [5] the target is T2, 1-phosphatidylinositol 4,5-bisphosphate phosphodiesterase beta-1 (Rattus norvegicus, UniProt P10687).
T2 sequence (P10687 whole entry): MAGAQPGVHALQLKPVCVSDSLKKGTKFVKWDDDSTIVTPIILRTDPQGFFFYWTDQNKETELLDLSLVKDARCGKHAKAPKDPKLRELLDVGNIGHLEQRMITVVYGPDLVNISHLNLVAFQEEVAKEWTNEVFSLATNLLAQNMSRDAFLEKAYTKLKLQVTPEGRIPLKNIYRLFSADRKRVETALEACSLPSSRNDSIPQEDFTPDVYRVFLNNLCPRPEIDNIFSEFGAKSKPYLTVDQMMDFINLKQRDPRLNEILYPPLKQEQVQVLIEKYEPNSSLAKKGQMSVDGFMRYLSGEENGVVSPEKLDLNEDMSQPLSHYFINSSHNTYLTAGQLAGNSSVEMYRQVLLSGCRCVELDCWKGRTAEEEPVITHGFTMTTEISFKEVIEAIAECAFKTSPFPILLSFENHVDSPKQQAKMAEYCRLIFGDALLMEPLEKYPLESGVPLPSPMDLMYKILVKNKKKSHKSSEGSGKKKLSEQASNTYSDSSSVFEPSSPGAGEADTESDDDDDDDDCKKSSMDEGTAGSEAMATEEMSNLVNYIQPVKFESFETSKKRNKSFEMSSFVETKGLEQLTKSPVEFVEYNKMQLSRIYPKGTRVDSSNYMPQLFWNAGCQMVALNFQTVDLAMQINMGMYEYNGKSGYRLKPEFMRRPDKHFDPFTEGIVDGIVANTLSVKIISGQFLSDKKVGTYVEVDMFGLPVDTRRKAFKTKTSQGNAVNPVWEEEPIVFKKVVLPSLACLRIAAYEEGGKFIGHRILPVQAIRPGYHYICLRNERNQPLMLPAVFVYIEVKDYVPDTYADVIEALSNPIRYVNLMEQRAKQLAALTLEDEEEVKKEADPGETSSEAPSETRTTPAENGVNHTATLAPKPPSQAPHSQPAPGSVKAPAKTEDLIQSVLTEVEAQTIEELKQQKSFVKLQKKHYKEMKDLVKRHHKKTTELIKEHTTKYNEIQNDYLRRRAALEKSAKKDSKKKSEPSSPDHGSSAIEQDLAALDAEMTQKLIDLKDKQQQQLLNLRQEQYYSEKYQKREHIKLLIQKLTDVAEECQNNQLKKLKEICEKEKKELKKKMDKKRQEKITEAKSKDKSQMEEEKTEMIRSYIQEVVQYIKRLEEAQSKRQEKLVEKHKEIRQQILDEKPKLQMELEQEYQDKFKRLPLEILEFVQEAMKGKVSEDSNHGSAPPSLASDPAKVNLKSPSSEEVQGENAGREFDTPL

Assay [6] has as its target T3, 1-phosphatidylinositol 4,5-bisphosphate phosphodiesterase delta-4 (Rattus norvegicus, UniProt Q62711).
T3 sequence (Q62711 whole entry): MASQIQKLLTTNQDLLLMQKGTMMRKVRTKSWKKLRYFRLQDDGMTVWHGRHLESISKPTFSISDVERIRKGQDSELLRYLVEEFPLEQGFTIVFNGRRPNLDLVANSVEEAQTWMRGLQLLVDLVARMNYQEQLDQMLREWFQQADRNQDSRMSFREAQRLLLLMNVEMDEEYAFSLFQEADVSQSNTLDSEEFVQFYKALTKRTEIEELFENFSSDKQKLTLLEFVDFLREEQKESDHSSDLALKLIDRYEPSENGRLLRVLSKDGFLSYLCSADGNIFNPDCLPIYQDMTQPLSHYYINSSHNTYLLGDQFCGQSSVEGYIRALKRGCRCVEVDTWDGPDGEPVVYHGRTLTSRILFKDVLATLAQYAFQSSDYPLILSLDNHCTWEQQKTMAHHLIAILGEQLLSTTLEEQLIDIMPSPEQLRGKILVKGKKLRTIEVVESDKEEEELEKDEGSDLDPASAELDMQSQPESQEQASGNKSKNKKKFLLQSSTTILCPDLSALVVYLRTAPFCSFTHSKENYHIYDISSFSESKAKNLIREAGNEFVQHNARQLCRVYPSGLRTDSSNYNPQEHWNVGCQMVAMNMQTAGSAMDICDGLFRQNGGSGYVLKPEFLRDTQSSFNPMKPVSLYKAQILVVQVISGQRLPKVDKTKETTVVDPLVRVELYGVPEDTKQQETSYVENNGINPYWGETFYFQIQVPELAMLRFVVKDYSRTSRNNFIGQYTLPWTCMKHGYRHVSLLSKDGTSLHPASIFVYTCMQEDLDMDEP

Rho-associated protein kinase 2, sequence (Q62868 whole entry): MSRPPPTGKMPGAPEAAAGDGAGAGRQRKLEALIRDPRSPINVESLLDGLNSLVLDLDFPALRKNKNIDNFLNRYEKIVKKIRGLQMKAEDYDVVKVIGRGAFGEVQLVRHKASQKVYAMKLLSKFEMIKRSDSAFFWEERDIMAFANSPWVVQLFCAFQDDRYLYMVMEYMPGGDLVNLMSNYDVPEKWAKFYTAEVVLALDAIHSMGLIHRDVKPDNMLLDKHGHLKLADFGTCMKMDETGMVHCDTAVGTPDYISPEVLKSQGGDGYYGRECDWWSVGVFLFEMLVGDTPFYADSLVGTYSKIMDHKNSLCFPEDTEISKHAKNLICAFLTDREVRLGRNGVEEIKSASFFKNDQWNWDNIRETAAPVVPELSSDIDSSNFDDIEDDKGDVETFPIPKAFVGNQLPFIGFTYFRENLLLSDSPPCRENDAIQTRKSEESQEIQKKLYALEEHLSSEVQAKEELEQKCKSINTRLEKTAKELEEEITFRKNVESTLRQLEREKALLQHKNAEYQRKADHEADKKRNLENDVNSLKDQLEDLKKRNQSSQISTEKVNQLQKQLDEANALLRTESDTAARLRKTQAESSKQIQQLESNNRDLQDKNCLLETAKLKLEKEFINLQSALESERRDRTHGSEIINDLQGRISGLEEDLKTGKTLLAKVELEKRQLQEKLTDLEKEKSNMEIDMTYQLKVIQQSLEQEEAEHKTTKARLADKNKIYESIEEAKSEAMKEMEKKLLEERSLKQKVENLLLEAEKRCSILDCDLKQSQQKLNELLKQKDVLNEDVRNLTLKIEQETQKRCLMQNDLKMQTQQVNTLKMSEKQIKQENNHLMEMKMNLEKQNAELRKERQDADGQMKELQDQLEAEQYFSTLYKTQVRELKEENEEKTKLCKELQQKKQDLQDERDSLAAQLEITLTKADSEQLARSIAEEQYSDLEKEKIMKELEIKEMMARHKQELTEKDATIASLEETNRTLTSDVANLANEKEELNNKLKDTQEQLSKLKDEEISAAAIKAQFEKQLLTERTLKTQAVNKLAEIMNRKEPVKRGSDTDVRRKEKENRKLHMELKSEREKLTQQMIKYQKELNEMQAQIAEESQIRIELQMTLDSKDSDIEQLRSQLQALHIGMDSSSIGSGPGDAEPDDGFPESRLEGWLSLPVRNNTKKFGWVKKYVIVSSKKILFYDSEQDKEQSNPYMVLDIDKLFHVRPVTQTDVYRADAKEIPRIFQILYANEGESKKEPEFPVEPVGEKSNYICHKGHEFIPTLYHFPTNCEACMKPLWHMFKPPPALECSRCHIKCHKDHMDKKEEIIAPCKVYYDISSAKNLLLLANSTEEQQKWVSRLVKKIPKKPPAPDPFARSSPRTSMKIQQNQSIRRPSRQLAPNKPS

In the case of `O=S(=O)(NCCNC/C=C/c1ccc(Br)cc1)c1cccc2cnccc12`, the figures for the Ki in assay [1], in assay [2] and in assay [3] were 50 nM, 500 nM and 270 nM, respectively.

With `COc1ccc2c(c[n+](C)c3c4cc5c(cc4ccc23)OCO5)c1OC`, the Ki in assay [4] amounted to 660 nM.

Molecule `CCCCCCCCCCCCCCCCCCOC[C@H](COP(=O)([O-])OCC[N+](C)(C)C)OC` [CAS_77286-66-9] yielded a Ki in assay [5] of 5000 nM.

Consider `NC[C@@H]1O[C@H](O[C@H]2[C@@H](O)[C@H](O[C@@H]3[C@@H](O)[C@H](N)C[C@H](N)[C@H]3O[C@H]3O[C@H](CN)[C@@H](O)[C@H](O)[C@H]3N)O[C@@H]2CO)[C@H](N)[C@@H](O)[C@@H]1O` [KDR Kinase Inhibitor, 3], for which the inhibition constant Ki in assay [5] and in assay [6] was 5000 nM in each case.

With `C[C@@H](N)[C@H]1CC[C@H](C(=O)Nc2ccncc2)CC1` [Y-27632], the Ki in assay [4] is 26000 nM; in assay [1], 25000 nM; in assay [3], 100 nM.
